# Laboratory results taken from US20220280607A1, “Treatment of Heart Defects and Conditions in Pediatric Patients” (University of Pittsburgh - Of the Commonwealth System of …, priority 2019, published 2022).
# Key:
# [1] = tested on: adult mouse heart after myocardial infarction; assay: Neonatal propranolol treatment followed by adult baseline analysis and myocardial infarction (LAD ligation) with cardiac MRI, AFOG histology and stereology; assay type: in vivo
# Method: Mouse myocardial injury model: ICR mice were treated with propranolol (10 μg/g, 2 i.p. injections/day) from P1 to P12. Then, cardiac injury was induced to male mice via performing left anterior descending artery (LAD) ligation at the age of P40 to P60. Briefly, the mice were anesthetized with 4% isoflurane, intubated, and ventilated with a stroke volume of 225 microliters (μl) at 145 breaths/minute. The hearts were exposed by performing thoracotomy and the LAD coronary artery was tied with 8-0 nylon suture. After the chest was […] with 6-0 suture, bupivacaine (8 μg/g) was locally administered through subcutaneous injection. The mice were kept intubated without isoflurane at room temperature until waking up from the anesthesia. Bupivacaine (8 μg/g) was administered by subcutaneous injection in the following 3 days (1 day post injury (dpi) to 3 dpi). The heart function after LAD ligation was measured by cardiac MRI at 1-3 days post injury (dpi, acute injury period) and 10-12 dpi (recovery period), respectively.
# Quantification of cardiomyocytes with unbiased stereology: Mouse hearts were washed in cardioplegia solution (PBS, […] potassium chloride (KCl)), weighed, and fixed with 3.7% formaldehyde at room temperature overnight. The hearts were then placed in 30% sucrose at 4° C. for 48 hours. The atria were cut off and the ventricles were embedded in OCT and sectioned on a Leica CM1950 cryostat in cross-sectional orientation (thickness 15 μm), resulting in 75-80 slides/heart with 4 sections each. For random systematic sampling we used a random number generator ranging between […] to determine the first slide and then selected every 17th slide for staining. Myocardial volume and scar were quantified by point count method on AFOG-stained sections. Briefly, tissue sections were stained with Acid fuchsin-orange G (AFOG; Polizzotti et al.) and photomicrographs were taken on a Leica MZ26 dissector microscope (objective lens 10×). Areas of myocardium (red after AFOG staining) and scar (blue after AFOG staining) were quantified using ImageJ (version 1.51s). The image was overlaid with a grid to determine area per point. The distance between selected sections was calculated (17th slide×4 sections/slide×15 μm section thickness). The LV myocardial volume was measured by counting the number of grids on both LV myocardium and the scar region. We used the optical dissector method to determine the volume density of cardiomyocyte nuclei. The optical dissector operates optimally at 3 μm distance between lookup and counting frames. Adult mouse hearts were sectioned with a cryostat set at 15 μm. Slides were stained with α-actinin and Hoechst and imaged with an A1R laser-scanning confocal microscope (×60 oil lens).
# Briefly, the immunofluorescence stained sections were imaged using a Nikon A1R confocal microscope. We selected four random spots on the technically-best section from each slide and analyzed 20 random samples from each heart. The total number of positive cardiomyocyte nuclei per heart was counted and the mean per sample volume was calculated. Total number of cardiomyocytes (endowment) was calculated as: Number of cardiomyocytes=Number of cardiomyocyte nuclei/(Mono %+2×Bi %[…]+4×Tetra %).
# Adult mouse cardiac MRI: Mice were anesthetized with 4% isoflurane mixed with room air in an induction box for 1 to 3 minutes. The depth of anesthesia was monitored by toe reflex, extension of limbs, and spine positioning. Once an appropriate depth of anesthesia was established, mice were placed on a custom-built mouse holder and the anesthesia was maintained by 1.5 to 2% isoflurane with 100% oxygen via a nose cone. […] The respiration waveform was automatically processed to detect inspiration, expiration, and respiration rate. In-vivo cardiac MRI (CMR) was carried out on a Bruker Biospec 7T/30 system (Bruker Biospin MRI, Billerica, Mass.) with the 35-mm quadrature coil for both transmission and reception.
# [2] = tested on: cardiomyocytes of newborn mice; assay: Mouse pharmacological treatment of newborn mice: binucleated cardiomyocytes, cardiomyocyte endowment, cell cycle activity, heart weight; assay type: in vivo; details: for increase of cardiomyocyte endowment: counting fixation-digested hearts, FIG. 12D
# Method: […] An equal volume of phosphate buffered saline (PBS) was injected in the control groups.
# Isolation of intact cardiomyocytes for quantification: We used a previously validated fixation digestion method to isolate intact cardiomyocytes from fresh or frozen myocardium for quantification (Mollova, M., et al. “Cardiomyocyte proliferation in human heart growth” Proceedings of the National Academy of Sciences January 2013, 110 (4) 1446-1451; DOI: 10.1073/pnas.1214608110). The myocardium was cut into 1 cubic millimeter (mm^3) sized tissue blocks followed by incubation with 3.7% formaldehyde at room temperature for 1.8 hours. After being washed with PBS 3 times to remove the formaldehyde, the fixed tissue blocks were digested in enzyme solution (Collagenase B, 3.6 mg/ml; Collagenase D, 4.8 mg/ml) at 37 degrees Celsius (° C.), with 10 revolutions per minute (rpm) overhead rotation. The digested cells were collected every 24 hours from the supernatant, and the undigested tissue was re-suspended with fresh enzyme solution until all of the tissue pieces were digested. All of the digested cells from the same heart were then combined and allowed to settle to the bottom of the tube. The cell pellet was collected for further study.
# Counting of cardiomyocytes after fixation and digestion: All fractions from the digestion of a heart were combined in 2 milliliters (mL) PBS and cardiomyocytes were quantified using a hemocytometer.
# Intact cardiomyocytes in suspension. To assess M-phase, intact cardiomyocytes were isolated by fixation-digestion. The solution containing the stained cells was then transferred to 8-well chambered cover glass (400 μl/well). After the cells were settled down to the bottom of the chambers, the number of mono/bi/multinucleated cardiomyocytes were counted with a fluorescence microscope, and the percentage of mono/bi/multinucleated cardiomyocytes was calculated. To quantify the proportion of H3P-positive cardiomyocytes, the concentration of stained cardiomyocytes in suspension (Ccardiomyocytes) was first measured using a hemocytometer. The cell suspension (400 μl) was then transferred to a well of a chamber slide, and the total number of H3P-positive cardiomyocytes (HH3P+) inside the well was counted with a TiE epifluorescence microscope. The proportion of the H3P-positive cardiomyocytes (PH3P+) was calculated using the following formula: […]
# Heart sections: To determine S-phase, BrdU (40 μg/g body) was administered to P7 ICR mice and the hearts were resected at P8, fixed, and cryosectioned at 15 μm thickness. From each heart, four heart sections at a distance of 300 μm were selected and imaged by tile scanning with a Nikon A1R confocal microscope. The total number of BrdU-positive cardiomyocytes at the selected heart sections was counted. The total area of the selected heart sections was measured by Fiji software. The density of BrdU-positive cardiomyocytes (cells/mm^2) in the hearts was calculated using the following equation: […]
# Intact cardiomyocytes in suspension. Cardiomyocytes were isolated from fresh or frozen (human or mouse) ventricle myocardium using the fixation-digestion method, followed by immunostaining as described above. The cells were then imaged and quantified with a Nikon A1R microscope for mono/bi/multi-nucleation.
smiles,measurement,setting,value
"CC(C)NCC(O)COc1cccc2ccccc12 (stereo not shown) [propranolol, 1-naphthalen-1-yloxy-3-(propan-2-ylamino)propan-2-ol]","scar size, determined by histology","[1]; 12 dpi, AFOG staining, vs control, FIG. 13K",not different
same,"region of myocardium affected by ischemia, visualized by LGE","[1]; after MI, vs control, FIG. 13D, 13E",not different
same,relative systolic thickening,"[1]; after MI, vs control, FIG. 13J",higher
same,higher cardiomyocyte endowment after MI,"[1]; determined by stereology, vs control, FIG. 13L",30%
same,increased cardiomyocyte endowment in adult hearts at baseline,"[1]; propranolol 10 μg/g, 2 i.p. injections per day, P1-12, P42, FIG. 13A",persisted until adulthood
same,cardiac function (ejection fraction) of adult hearts at baseline,"[1]; propranolol P1-12, P60, FIG. 13B",did not alter
same,thinned region of the LV myocardium after myocardial infarction,"[1]; recovery phase, vs control, FIG. 13H, 13I",significantly smaller
same,MRI-measured ejection fraction,"[1]; twelve days after MI (recovery phase), FIG. 13F, 13G",42%
same,infarct size by late gadolinium-enhancement vs control,"[1]; two days after MI (acute phase), FIG. 13D, 13E",same
same,ejection fraction (MRI) vs control,"[1]; two days after MI (acute phase), FIG. 13F, 13G",same
same,heart weight (heart weight to body weight ratio) after MI,"[1]; vs control, FIG. 13M",not changed
same,fewer cardiomyocytes undergoing cytokinesis failure than PBS-treated pups,[2]; at P8,13.6%
same,additional cardiomyocytes predicted to be generated by enabling completion of cytokinesis,"[2]; at P8, back-of-the-envelope calculation from endowment of PBS-treated pups at P4",0.22×10^6 cardiomyocytes
same,propranolol-induced increase of endowment between P4 and P8 (treated minus PBS),[2]; calculated from the counts,0.18×10^6 cardiomyocytes
same,heart weight,"[2]; newborn mice, 2 i.p. injections per day, FIG. 16A, 16B",not changed
same,increase of cardiomyocyte endowment,"[2]; newborn mice, at P4, 10 μg/g, 2 i.p. injections per day",22%
same,increase of cardiomyocyte endowment,"[2]; newborn mice, at P8, 2 i.p. injections per day, 12H",30%
same,cardiomyocyte cell cycle entry (quantified by BrdU uptake),"[2]; newborn mice, at P8, FIG. 12E",without a change
same,progression to M-phase (quantified by H3P-staining),"[2]; newborn mice, at P8, FIG. 12F",without a change
same,decrease of the proportion of binucleated cardiomyocytes,"[2]; newborn mice, treatment from P1 to P4, 10 μg/g, 2 i.p. injections per day, FIG. 12C",21%
same,decrease of the proportion/formation of binucleated cardiomyocytes,"[2]; newborn mice, treatment from P1 to P8, 2 i.p. injections per day (propranolol 10 μg/g; alprenolol 10 μg/g, 40 μg/g), FIG. 12C, 12G",17%
same,increase of cardiomyocyte endowment between P4 and P8 in treated pups,"[2]; propranolol-treated pups, from counts",0.35×10^6 cardiomyocytes
